# Test results as given in publication PMC2728764 (ACS chemical biology, 2008).
# Key:
# AdmJ = experiment: ATP-[…]PPi exchange assay; format: biochemical, Pantoea agglomerans; conditions: 5 mM ATP, 1 mM PPi, 10 mM MgCl2, 5 mM TCEP, 75 mM Tris pH 7.5, RT
# AdmH = AdmH (Pantoea agglomerans, UniProt Q84FL5); experiment: chiral radio-HPLC; format: biochemical; conditions: labelled compound ([14C]-L-Phe, 100 µM); 20 mM tricine pH 8.25, 30 °C
smiles,measurement,setting,value
N[C@@H](CC(=O)O)c1ccccc1 [(S)-β-Phe],Km,AdmJ,130 ± 34 µM
same,chiral radio-HPLC,AdmH,The β-Phe generated by AdmH was found to be solely (S)-β-Phe
